Source: patent publication US8741897B2, “Glucocorticoid mimetics, methods of making them, pharmaceutical compositions and uses thereof” (Boehringer Ingelheim Pharmaceuticals Inc., priority 2003, dated 2014)

target: T1, human glucocorticoid receptor (GR) complex (Homo sapiens, UniProt P04150); test: Glucocorticoid receptor competitive binding assay (fluorescence polarization, TAMRA-labeled dexamethasone probe); conditions: compounds of Formula (IA)
T1 construct: made in house; host or cells: insect expression system (baculovirus lysate)
T1 sequence (P04150 1-777): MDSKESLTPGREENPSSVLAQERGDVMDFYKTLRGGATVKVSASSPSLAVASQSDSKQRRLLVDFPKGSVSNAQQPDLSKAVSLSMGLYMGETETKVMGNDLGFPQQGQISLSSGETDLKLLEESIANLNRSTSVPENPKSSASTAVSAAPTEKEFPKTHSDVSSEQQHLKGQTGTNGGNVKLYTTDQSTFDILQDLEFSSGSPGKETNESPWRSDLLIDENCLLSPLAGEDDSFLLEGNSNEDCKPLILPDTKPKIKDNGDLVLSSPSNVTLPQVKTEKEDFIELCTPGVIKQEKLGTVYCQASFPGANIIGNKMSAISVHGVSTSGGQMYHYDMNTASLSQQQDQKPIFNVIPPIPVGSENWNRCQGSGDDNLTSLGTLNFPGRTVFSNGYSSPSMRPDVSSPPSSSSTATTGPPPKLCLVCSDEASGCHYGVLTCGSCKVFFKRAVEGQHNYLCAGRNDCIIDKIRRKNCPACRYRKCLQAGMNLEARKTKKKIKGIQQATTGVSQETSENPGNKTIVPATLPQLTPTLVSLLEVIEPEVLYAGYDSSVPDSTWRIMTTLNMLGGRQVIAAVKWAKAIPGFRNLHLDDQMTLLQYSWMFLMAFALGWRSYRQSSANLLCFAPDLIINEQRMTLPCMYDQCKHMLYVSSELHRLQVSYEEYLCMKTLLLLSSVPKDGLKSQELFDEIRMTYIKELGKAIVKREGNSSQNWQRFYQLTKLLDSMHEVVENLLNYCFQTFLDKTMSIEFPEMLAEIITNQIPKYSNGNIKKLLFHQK
Experimental: Compounds of the invention were evaluated for binding to the steroid receptor by a fluorescence polarization competitive binding assay. Detailed descriptions for preparation of recombinant glucocorticoid receptor (GR) complex used in the assay is described in U.S. patent application Pub.
A. Glucocorticoid Receptor Competitive Binding Assay
Step 1. Characterization of the Fluorescent Probe
The wavelengths for maximum excitation and emission of the fluorescent probe should first be measured. An example of such a probe is rhodamine (TAMRA)-labeled dexamethasone.
The affinity of the probe for the steroid receptor was then determined in a titration experiment. The fluorescence polarization value of the probe in assay buffer was measured on an SLM-8100 fluorometer using the excitation and emission maximum values described above. Aliquots of expression vector lysate were added and fluorescence polarization was measured after each addition until no further change in polarization value was observed. Non-linear least squares regression analysis was used to calculate the dissociation constant of the probe from the polarization values obtained for lysate binding to the probe.
Step 2. Screening for Inhibitors of Probe Binding
This assay uses fluorescence polarization (FP) to quantitate the ability of test compounds to compete with tetramethyl rhodamine (TAMRA)-labeled dexamethasone for binding to a human glucocorticoid receptor (GR) complex prepared from an insect expression system. The assay buffer was: 10 mM TES, 50 mM KCl, 20 mM Na2MoO4.2H2O, 1.5 mM EDTA, 0.04% w/v CHAPS, 10% v/v glycerol, 1 mM dithiothreitol, pH 7.4. Test compounds were dissolved to 1 mM in neat DMSO and then further diluted to 10× assay concentration in assay buffer supplemented with 10% v/v DMSO. Test compounds were serially diluted at 10× assay concentrations in 10% DMSO-containing buffer in 96-well polypropylene plates. Binding reaction mixtures were prepared in 96-well black Dynex microtiter plates by sequential addition of the following assay components to each well: 15 μL of 10× test compound solution, 85 μL of GR-containing baculovirus lysate diluted 1:170 in assay buffer, and 50 μL of 15 nM TAMRA-labeled dexamethasone. Positive controls were reaction mixtures containing no test compound; negative controls (blanks) were reaction mixtures containing 0.7 μM to 2 μM dexamethasone. […] IC50 values were determined by iterative non-linear curve fitting of the FP signal data to a 4-parameter logistic equation.

activity in the GR binding assay	SMILES
potent activity	CC(C)(CC(O)(Cc1[nH]c2ccccc2c1Br)C(F)(F)F)c1cccc(F)c1 (centres unmarked) [2-(3-Bromo-1H-indol-2-ylmethyl)-1,1,1-trifluoro4-(3-fluorophenyl)-4-methylpentan-2-ol]
potent activity	COc1ccc(F)cc1C(C)(C)CC(O)(Cc1ccncc1)C(F)(F)F (centres unmarked) [1,1,1-Trifluoro-4-(5-fluoro-2-methoxyphenyl)-4-methyl-2-pyridin-4-ylmethylpentan-2-ol]
potent activity	COc1ccc(F)cc1C(C)(C)CC(O)(Cc1cc2ccc(C(N)=O)cc2[nH]1)C(F)(F)F (centres unmarked) [2-[4-(5-Fluoro-2-methoxyphenyl)-2-hydroxy-4-methyl-2-trifluoromethylpentyl]-1H-indole-6-carboxylic acid amide]
potent activity	COc1ccc(F)cc1C(C)(C)CC(O)(Cc1cc(Cl)nc2ccc(Cl)cc12)C(F)(F)F (centres unmarked) [2-(2,6-Dichloroquinolin-4-ylmethyl)-1,1,1-trifluoro-4-(5-fluoro-2-methoxyphenyl)-4-methylpentan-2-ol]
potent activity	CC(C)(CC(O)(Cc1cc2ccccc2[nH]1)C(F)(F)F)c1ccc(C(F)(F)F)cc1 (centres unmarked) [1,1,1-Trifluoro-2-(1H-indol-2-ylmethyl)-4-methyl-4-(4-trifluoromethylphenyl)pentan-2-ol]
potent activity	COc1ccc(F)cc1C(C)(C)CC(O)(Cc1cc2ccc(C(=O)N3CCOCC3)cc2[nH]1)C(F)(F)F (centres unmarked) [{2-[4-(5-Fluoro-2-methoxyphenyl)-2-hydroxy-4-methyl-2-trifluoromethylpentyl]-1H-indol-6-yl}morpholin-4-ylmethanone]
potent activity	Cc1ccc(F)cc1C(C)(C)CC(O)(Cc1cc2nnccc2[nH]1)C(F)(F)F (centres unmarked) [1,1,1-Trifluoro-4-(5-fluoro-2-methylphenyl)-4-methyl-2-(5H-pyrrolo[3,2-c]pyridazin-6-ylmethyl)pentan-2-ol]
potent activity	CC(C)(CC(O)(Cc1cc2cc(-c3ccccc3)ccc2[nH]1)C(F)(F)F)c1cc(F)cc2c1OCC2 (centres unmarked) [1,1,1-Trifluoro-4-(5-fluoro-2,3-dihydrobenzofuran-7-yl)-4-methyl-2-(5-phenyl-1H-indol-2-ylmethyl)pentan-2-ol]
potent activity	COc1ccc(F)cc1C(C)(C)CC(O)(Cc1cc2cc(C(=O)N3CCC(O)CC3)ccc2[nH]1)C(F)(F)F (centres unmarked) [{2-[4-(5-Fluoro-2-methoxyphenyl)-2-hydroxy-4-methyl-2-trifluoromethylpentyl]-1H-indol-5-yl}(4-hydroxypiperidin-1-yl)methanone]

tested on: glucocorticoid receptor function; test: one or more of the above assays (GR binding and glucocorticoid receptor cell assays: aromatase, IL-6, TAT, MMTV-Luc, IL-8, ICAM-Luc); type: cell-based; conditions: assay not specified per compound

SMILES	activity as agonists of the glucocorticoid receptor function in one or more of the above assays
CC(C)(CC(O)(Cc1cc2cc(Oc3ccccc3)ncc2[nH]1)C(F)(F)F)c1cc(-c2cccnc2)ccc1O (centres unmarked) [4-Pyridin-3-yl-2-[4,4,4-trifluoro-3-hydroxy-1,1-dimethyl-3-(5-phenoxy-1H-pyrrolo[2,3-c]pyridin-2-ylmethyl)butyl]phenol]	potent agonists
COc1ccc(F)cc1C(C)(C)CC(O)(Cc1cc2ccncc2[nH]1)C1(F)CC1 (centres unmarked) [2-(1-Fluorocyclopropyl)-4-(5-fluoro-2-methoxyphenyl)-4-methyl-1-(1H-pyrrolo[2,3-c]pyridin-2-yl)pentan-2-ol]	agonists
COc1ccc(-c2ccsc2)cc1C(C)(C)CC(O)(Cc1cc2cc(Cl)ncc2[nH]1)C(F)(F)F (centres unmarked) [2-(5-Chloro-1H-pyrrolo[2,3-c]pyridin-2-ylmethyl)-1,1,1-trifluoro-4-(2-methoxy-5-thiophen-3-ylphenyl)-4-methylpentan-2-ol]	potent agonists
CC(C)(CC(O)(Cc1cc2nc(CN)ccc2[nH]1)C(F)(F)F)c1cc(Cl)cc2c1OCC2 (centres unmarked) [2-(5-Aminomethyl-1H-pyrrolo[3,2-b]pyridin-2-ylmethyl)-4-(5-chloro-2,3-dihydrobenzofuran-7-yl)-1,1,1-trifluoro-4-methylpentan-2-ol]	potent agonists
Cc1ccc(F)cc1C(C)(C)CC(O)(Cc1cc2c(C)cncc2[nH]1)C(F)(F)F (centres unmarked) [1,1,1-Trifluoro-4-(5-fluoro-2-methylphenyl)-4-methyl-2-(4-methyl-1H-pyrrolo[2,3-c]pyridin-2-ylmethyl)pentan-2-ol]	potent agonists
Cc1nccc2[nH]c(CC(O)(CC(C)(C)c3cc(-c4ccsc4)ccc3O)C(F)(F)F)cc12 (centres unmarked) [4-Thiophen-3-yl-2-[4,4,4-trifluoro-3-hydroxy-1,1-dimethyl-3-(4-methyl-1H-pyrrolo[3,2-c]pyridin-2-ylmethyl)butyl]phenol]	potent agonists
COc1ccc(F)cc1C(C)(C)CC(O)(Cc1cc2cnccc2[nH]1)C(C)C (centres unmarked) [5-(5-Fluoro-2-methoxyphenyl)-2,5-dimethyl-3-(1H-pyrrolo[3,2-c]pyridin-2-ylmethyl)hexan-3-ol]	agonists
COc1ccc(Br)cc1C(C)(C)CC(O)(Cc1cc2cc(N3CCCCC3)ncc2[nH]1)C(F)(F)F (centres unmarked) [4-(5-Bromo-2-methoxyphenyl)-1,1,1-trifluoro-4-methyl-2-(5-piperidin-1-yl-1H-pyrrolo[2,3-c]pyridin-2-ylmethyl)pentan-2-ol]	potent agonists
CC(C)(CC(O)(Cc1cc2cnccc2[nH]1)C1CC1)c1cc(Cl)cc2c1OCC2 (centres unmarked) [4-(5-Chloro-2,3-dihydrobenzofuran-7-yl)-2-cyclopropyl-4-methyl-1-(1H-pyrrolo[3,2-c]pyridin-2-yl)pentan-2-ol]	agonists
COc1ccc(-c2cccnc2)cc1C(C)(C)CC(O)(Cn1ccc2c1CCCC2=O)C(F)(F)F (centres unmarked) [1-[2-Hydroxy-4-(2-methoxy-5-pyridin-3-ylphenyl)-4-methyl-2-trifluoromethylpentyl]-1,5,6,7-tetrahydroindol-4-one]	agonists
COc1ccc(-c2cncnc2)cc1C(C)(C)CC(O)(Cc1cc2cc(Cl)ncc2[nH]1)C(F)(F)F (centres unmarked) [2-(5-Chloro-1H-pyrrolo[2,3-c]pyridin-2-ylmethyl)-1,1,1-trifluoro-4-(2-methoxy-5-pyrimidin-5-ylphenyl)-4-methylpentan-2-ol]	potent agonists
COc1ccc2[nH]c(CC(O)(CC(C)(C)c3cc(Cl)cc4c3OCC4)C(F)(F)F)cc2n1 (centres unmarked) [4-(5-Chloro-2,3-dihydrobenzofuran-7-yl)-1,1,1-trifluoro-2-(5-methoxy-1H-pyrrolo[3,2-b]pyridin-2-ylmethyl)-4-methylpentan-2-ol]	potent agonists
CC(C)(CC(O)(Cc1cc2ccncc2[nH]1)C(F)(F)F)c1cccc(CN2CCOCC2)c1 (centres unmarked) [1,1,1-Trifluoro-4-methyl-4-(3-morpholin-4-ylmethylphenyl)-2-(1H-pyrrolo[2,3-c]pyridin-2-ylmethyl)pentan-2-ol]	potent agonists
COc1ccc(-c2cccnc2)cc1C(C)(C)CC(O)(Cc1cc2c(C)cncc2[nH]1)C(F)(F)F (centres unmarked) [1,1,1-Trifluoro-4-(2-methoxy-5-pyridin-3-ylphenyl)-4-methyl-2-(4-methyl-1H-pyrrolo[2,3-c]pyridin-2-ylmethyl)pentan-2-ol]	potent agonists
